Here are results for five molecules from patent US9585975B2, “MRI contrast agents” (NORTHWESTERN UNIVERSITY, priority 2012, dated 2017).

The subject of one data set is HaloTag protein. The note with it: 37° C. Here is the method:
The HaloTag protein was expressed recombinantly after subcloning the target protein into the vector pMCSG7 to include an N-terminal His6-Tag followed by a TEV protease cleavage site. The protein was expressed in BL21(DE3) cells and purified by Nickel affinity chromatography. […] The HaloTag protein was labeled with a 5-fold molar excess of the Gd(III) complex at 4 degrees C. overnight. […] The labeled proteins were concentrated to a starting concentration of ˜600 μM for all relaxivity analyses.
Longitudinal relaxivities of the unbound agents were determined in water and the protein-bound contrast agents in 10 mM MOPS at 1.5 T, 37_C (Table 1).
To prepare the protein-bound contrast agent 12.5 mg protein was incubated overnight at 4° C. with five equivalents haloalkane label. Excess label was removed by size-exclusion chromatography (Econo-Pac 10 DG Disposable Chromatography Columns) and dialysis overnight into 10 mM MOPS, pH 7.4 (Spectrum Spectra/Por 4 Dialysis Membrane Tubing 12-14K MWCO) at 4° C. The protein-bound contrast agent was concentrated to a starting concentration of ˜600 μM for all relaxivity assays (Amicon Ultra-4, PLGC Ultracel-PL Membrane, 10 kDa). Agent binding was detected by mass spectrometry (Agilent 6510 Accurate-Mass Q-TOF LC/MS) and data deconvolution was performed with the included software (Agilent MassHunter Qualitative Analysis).
The relaxation rates and Gd(III) concentrations were determined for contrast agent solutions in a range of concentrations. The relaxation rates of small molecule contrast agents were investigated using a 4 mM starting solution in water and diluted 1:1 four times. Relaxation rates of protein bound contrast agents were measured using 600 μM starting solution in 10 mM MOPS and was diluted 1:1 four times. Relaxation rates were determined using a 60 MHz (1.5 T) NMR analyzer (Bruker Minispec MQ60) at 37° C. using 500 μL in a 7.5 mm inner diameter NMR tubes. T1 relaxation times were determined using monoexponential curve fitting and an inversion recovery pulse sequence with four averages for each of 10 data points.
Gd(III) concentrations for all samples were measured by ICP-MS. Samples were prepared by dissolving 10 μL into 90 μL trace nitric acid, and diluted to 10 mL with ultrapure water (nitric acid was added to generate a 3% solution. Samples contained a multi-element internal standard consisting of 5 ppb each Bi, Ho, In, Li(6), Sc, Tb, and Y (Spex Certiprep, Metuchen, N.J., USA). ICP-MS was performed on a computer-controlled (Plasmalab software) Thermo X series II ICP-MS (Thermo Fisher Scientific, Waltham, Mass., USA) equipped with an ESI SC-2 autosampler (Omaha, Nebr., USA). Each sample was acquired using 1 survey run (10 sweeps) and 3 main (peak jumping) runs (100 sweeps).

The nature of data set [1]: Relaxivity determination of free (unbound) contrast agents. The format is physicochemical. The note with it: 37° C.
Protocol: The relaxation rates and Gd(III) concentrations were determined for contrast agent solutions in a range of concentrations. The relaxation rates of small molecule contrast agents were investigated using a 4 mM starting solution in water and diluted 1:1 four times. […] Relaxation rates were determined using a 60 MHz (1.5 T) NMR analyzer (Bruker Minispec MQ60) at 37° C. using 500 μL in a 7.5 mm inner diameter NMR tubes. T1 relaxation times were determined using monoexponential curve fitting and an inversion recovery pulse sequence with four averages for each of 10 data points.
The next data set addresses HSA (Homo sapiens, UniProt P02768). Conditions: 1.5 T, 37 degrees C.; cited from earlier work.
For data set [2] the following is noted: 1.5 T, 37 degrees C.; cited from earlier work.

“And” between values parts separate entries of the source, which are not always exact repeats. Equal values may be shown once. Read-outs that look alike come from different tables or passages of the source.

Chain of HSA (P02768 25-609): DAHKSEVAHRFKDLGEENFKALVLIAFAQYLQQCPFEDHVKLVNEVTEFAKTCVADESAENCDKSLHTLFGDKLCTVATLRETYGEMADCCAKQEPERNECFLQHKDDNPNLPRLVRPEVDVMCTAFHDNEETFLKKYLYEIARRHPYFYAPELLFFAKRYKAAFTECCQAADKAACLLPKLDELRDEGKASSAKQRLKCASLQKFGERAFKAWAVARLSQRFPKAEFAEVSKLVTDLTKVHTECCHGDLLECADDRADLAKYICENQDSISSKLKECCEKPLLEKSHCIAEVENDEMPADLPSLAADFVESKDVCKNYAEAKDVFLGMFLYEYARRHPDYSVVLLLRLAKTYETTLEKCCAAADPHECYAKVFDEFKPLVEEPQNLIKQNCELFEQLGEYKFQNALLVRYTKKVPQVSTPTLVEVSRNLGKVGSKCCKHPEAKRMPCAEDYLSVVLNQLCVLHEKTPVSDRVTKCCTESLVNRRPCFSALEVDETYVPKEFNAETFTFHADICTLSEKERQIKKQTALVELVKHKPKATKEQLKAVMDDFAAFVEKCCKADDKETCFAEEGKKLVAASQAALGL

With `O=C([O-])CN1CCN(CCCCC(=O)NCCOCCOCCCCCCCl)CCN(CC(=O)[O-])CCN(CC(=O)[O-])CC1.[Gd+3]` [4CHTGd], the “r1 - PB (longitudinal relaxivity, protein-bound)” value with HaloTag protein (60 MHz (1.5 T), 10 mM MOPS) stood at 8.6 ± 1.1 mM⁻¹ s⁻¹; with HaloTag protein (400 MHz), 3.3 ± 0.2 mM⁻¹ s⁻¹. Further, the “r2 - PB (transverse relaxivity, protein-bound)” value was 15.9 ± 2.3 mM⁻¹ s⁻¹ in the data set on HaloTag protein (60 MHz) and 19.6 ± 1.3 mM⁻¹ s⁻¹ in the data set with HaloTag protein (400 MHz). The entries for the “r2 - F (transverse relaxivity, free)” value in data set [1] (60 MHz) and in data set [1] (400 MHz) were 6.5 ± 0.5 mM⁻¹ s⁻¹ and 6.9 ± 0.2 mM⁻¹ s⁻¹, respectively. Moreover, the “r1 - F (longitudinal relaxivity, free)” value in data set [1] (400 MHz) turned out to be 5.6 ± 0.2 mM⁻¹ s⁻¹.

For `O=C([O-])CN(CCN(CC(=O)[O-])C[C@H](COP(=O)([O-])OC1CCC(c2ccccc2)(c2ccccc2)CC1)N(CC(=O)[O-])CC(=O)[O-])CC(=O)[O-].[Gd+3].[H+].[H+].[H+]` [MS-325], the “relaxivity when bound to HSA” value at HSA was 25 mM⁻¹ s⁻¹. For the same molecule, in data set [2], the “relaxivity, unbound” value was 5.5 mM⁻¹ s⁻¹.

For the molecule `O=C([O-])CN1CCN(CCCC(=O)NCCOCCOCCCCCCCl)CCN(CC(=O)[O-])CCN(CC(=O)[O-])CC1.[Gd+3]` [3CHTGd], the “r1 - PB (longitudinal relaxivity, protein-bound)” value in the data set with HaloTag protein (60 MHz (1.5 T), 10 mM MOPS) is 7.6 ± 0.7 mM⁻¹ s⁻¹; in the data set on HaloTag protein (400 MHz), 2.7 ± 0.1 mM⁻¹ s⁻¹. Also, the “r2 - PB (transverse relaxivity, protein-bound)” value in the data set with HaloTag protein (60 MHz) is 13.1 ± 0.9 mM⁻¹ s⁻¹; in the data set on HaloTag protein (400 MHz), 15.9 ± 0.1 mM⁻¹ s⁻¹. In addition, the “r2 - F (transverse relaxivity, free)” value in data set [1] (60 MHz) turned out to be 5.8 ± 0.1 mM⁻¹ s⁻¹; in data set [1] (400 MHz), 4.9 ± 0.2 mM⁻¹ s⁻¹. The “r1 - F (longitudinal relaxivity, free)” value in data set [1] (400 MHz) amounted to 6.0 ± 0.2 mM⁻¹ s⁻¹.

With `O=C([O-])CN1CCN(CCC(=O)NCCOCCOCCCCCCCl)CCN(CC(=O)[O-])CCN(CC(=O)[O-])CC1.[Gd+3]` [2CHTGd], the “r1 - PB (longitudinal relaxivity, protein-bound)” value in the data set with HaloTag protein (60 MHz (1.5 T), 10 mM MOPS) was 22.0 mM⁻¹ s⁻¹ and 22.0 ± 2.2 mM⁻¹ s⁻¹; in the data set with HaloTag protein (400 MHz), 5.1 ± 0.7 mM⁻¹ s⁻¹. For the same molecule, the “r2 - PB (transverse relaxivity, protein-bound)” value in the data set on HaloTag protein (60 MHz) came out at 45.3 ± 5.5 mM⁻¹ s⁻¹; with HaloTag protein (400 MHz) it was 56 ± 8 mM⁻¹ s⁻¹. In addition, the “r2 - F (transverse relaxivity, free)” value in data set [1] (60 MHz) was 3.9 ± 0.5 mM⁻¹ s⁻¹; in data set [1] (400 MHz) it was 4.1 ± 0.1 mM⁻¹ s⁻¹. Besides, the “r1 - F (longitudinal relaxivity, free)” value in data set [1] (400 MHz) came to 3.3 ± 0.1 mM⁻¹ s⁻¹.

Regarding `O=C([O-])CN1CCN(CC(=O)[O-])CCN(CC(=O)NCCOCCOCCCCCCCl)CCN(CC(=O)[O-])CC1.[Gd+3]` [1CHTGd], the “r1 - PB (longitudinal relaxivity, protein-bound)” value in the data set with HaloTag protein (60 MHz (1.5 T), 10 mM MOPS) was determined as 13.4 ± 1.3 mM⁻¹ s⁻¹; in the data set with HaloTag protein (400 MHz), 4.0 ± 0.2 mM⁻¹ s⁻¹. The “r2 - PB (transverse relaxivity, protein-bound)” value is 25.2 ± 2.6 mM⁻¹ s⁻¹ in the data set on HaloTag protein (60 MHz) and 28 ± 2 mM⁻¹ s⁻¹ in the data set with HaloTag protein (400 MHz). In addition, the “r2 - F (transverse relaxivity, free)” value in data set [1] (60 MHz) came out at 4.1 ± 0.2 mM⁻¹ s⁻¹; in data set [1] (400 MHz), 4.0 ± 0.1 mM⁻¹ s⁻¹. The “r1 - F (longitudinal relaxivity, free)” value in data set [1] (400 MHz) was 3.2 ± 0.1 mM⁻¹ s⁻¹.
